Experimental data taken from BindingDB's records for doi:10.1016/s0960-894x(01)00529-7 (The R. W. Johnson Pharmaceutical Research Institute, 2001).

Experiment: Inhibition of thrombin-induced human gel-filtered platelet aggregation

**Q.** Which IC50 does the source give for O=C(Cc1cccnc1)N[C@@H](CNC(=O)C1CCCn2c(/C=C/C3CCNCC3)nnc21)C(=O)O (stereo partly specified) [3-{[3-(2-Piperidin-4-yl-vinyl)-5,6,7,8-tetrahydro-[1,2,4]triazolo[4,3-a]pyridine-8-carbonyl]-amino}-2-(2-pyridin-3-yl-acetylamino)-propionic acid] here?
**A.** 0.12 nM

**Q.** Which IC50 does the source give for O=C(O)C[C@H](NC(=O)C1CCCn2c(/C=C/C3CCNCC3)nnc21)c1cnc2ccccc2c1 (stereo partly drawn) [(S)-3-{[3-((E)-2-Piperidin-4-yl-vinyl)-5,6,7,8-tetrahydro-[1,2,4]triazolo[4,3-a]pyridine-8-carbonyl]-amino}-3-quinolin-3-yl-propionic acid] here?
**A.** 0.057 nM

**Q.** With O=C(O)C[C@H](NC(=O)C1CCCn2c(CCC3CCNCC3)nnc21)c1cccnc1 (stereo partly drawn) [(S)-3-{[3-(2-Piperidin-4-yl-ethyl)-5,6,7,8-tetrahydro-[1,2,4]triazolo[4,3-a]pyridine-8-carbonyl]-amino}-3-pyridin-3-yl-propionic acid] as the compound, how does the IC50 read?
**A.** 0.016 nM

**Q.** For O=C(O)C[C@H](NC(=O)c1cccn2c(CCC3CCNCC3)nnc12)c1cccnc1 [(S)-3-{[3-(2-Piperidin-4-yl-ethyl)-[1,2,4]triazolo[4,3-a]pyridine-8-carbonyl]-amino}-3-pyridin-3-yl-propionic acid], which IC50 is on record?
**A.** 0.37 nM

**Q.** For CC1(C(=O)NC[C@H](NC(=O)OCc2ccccc2)C(=O)O)CCCn2c(CCC3CCNCC3)nnc21 (stereo partly specified) [2-Benzyloxycarbonylamino-3-{[8-methyl-3-(2-piperidin-4-yl-ethyl)-5,6,7,8-tetrahydro-[1,2,4]triazolo[4,3-a]pyridine-8-carbonyl]-amino}-propionic acid], which IC50 is on record?
**A.** 2.7 nM

**Q.** For O=C(NC[C@H](NS(=O)(=O)Cc1ccccc1)C(=O)O)C1CCCn2c(/C=C/C3CCNCC3)nnc21 (stereo partly specified) [2-Phenylmethanesulfonylamino-3-{[3-(2-piperidin-4-yl-vinyl)-5,6,7,8-tetrahydro-[1,2,4]triazolo[4,3-a]pyridine-8-carbonyl]-amino}-propionic acid], which IC50 is on record?
**A.** 0.043 nM

**Q.** With O=C(N[C@@H](CNC(=O)C1CCCn2c(C=CC3CCNCC3)nnc21)C(=O)O)OCc1ccccc1 (stereo partly specified) [2-Benzyloxycarbonylamino-3-{[3-(2-piperidin-4-yl-vinyl)-5,6,7,8-tetrahydro-[1,2,4]triazolo[4,3-a]pyridine-8-carbonyl]-amino}-propionic acid] as the compound, how does the IC50 read?
**A.** 0.041 nM

**Q.** For O=C(O)C[C@H](NC(=O)C1CCCn2c(/C=C/C3CCNCC3)nnc21)c1cccnc1 (stereo partly drawn) [(S)-3-{[3-((E)-2-Piperidin-4-yl-vinyl)-5,6,7,8-tetrahydro-[1,2,4]triazolo[4,3-a]pyridine-8-carbonyl]-amino}-3-pyridin-3-yl-propionic acid], which IC50 is on record?
**A.** 0.061 nM

**Q.** With O=C(N[C@@H](CNC(=O)C1CCCn2c(CCC3CCNCC3)nnc21)C(=O)O)OCc1ccccc1 (stereo partly specified) [2-Benzyloxycarbonylamino-3-{[3-(2-piperidin-4-yl-ethyl)-5,6,7,8-tetrahydro-[1,2,4]triazolo[4,3-a]pyridine-8-carbonyl]-amino}-propionic acid] as the compound, how does the IC50 read?
**A.** 0.068 nM

**Q.** For O=C(N[C@@H](CNC(=O)[C@@H]1CCCN(C(=O)CCC2CCNCC2)C1)C(=O)O)OCc1ccccc1 [RWJ-53419], which IC50 is on record?
**A.** 0.027 nM

**Q.** With O=C(O)C[C@H](NC(=O)[C@@H]1CCCN(C(=O)CCC2CCNCC2)C1)c1cccnc1 [(S)-3-{[(R)-1-(3-Piperidin-4-yl-propionyl)-piperidine-3-carbonyl]-amino}-3-pyridin-3-yl-propionic acid] as the compound, how does the IC50 read?
**A.** 0.06 nM
